Data as given in patent publication US8466112B2, “Compositions comprising Ornithine Ketoglutarate (OKG)” (Cutech S.r.l., priority 2007, dated 2013).

Legend:
[1] = test system: hair follicles; test: Relative growth of hair follicles compared to control, OKG versus Ornithine and alpha-Ketoglutarate; assay type: cell-based, human; conditions: for Growth of hair follicles - elongation ± standard error, relative to control (100): after 6 days of cultivation
Description: (§1) Human anagen hair follicles were isolated from scalp skin and transferred for cultivation in sterile 24 well plates using a modified Williams' Medium E. Cultivation took place for nine days, while the experimental treatment of the follicles started 24 hours from the beginning of the cultivation.
(§2) Hair follicles taken from a single donor were selected for the experiments after 18 h of cultivation. Only those follicles showing a good vital stage and a growth of not less than 0.2 mm have been considered suitable to be maintained in culture. 4 groups were prepared comprising 9 follicles, plated at the density of 3 hair follicles/plate. […] The growth of the hair follicles was studied by microphotography and subsequently determined by image analysis. All the hair follicles were photographed every two days.
In order to show the superiority of OKG compared to Ornithine on one hand and alpha-Ketoglutarate on the other, the influence of these compounds on the metabolism of hair follicles was studied under the conditions as explained in Examples 1 and 2. […] Examples 3 and 4 are according to the invention, examples C1-C4 are shown for comparison.

[2] = test system: Human anagen hair follicles; test: Growth (elongation) of cultivated human hair follicles; assay type: cell-based
Description: as §1, §2

[3] = test system: A 549 cells; conditions: disclosed in WO 06/075924 A1; cited from earlier work
[4] = test system: cells in the dermopapilla; test: Number of proliferative (Ki-67) and apoptotic (Apoptag) cells in the dermopapilla; assay type: cell-based, human; conditions: after three days of cultivation
Description: After three days of cultivation samples were taken in order to determine the relative number of cells being in the proliferative or apoptotic state. The cells in apoptotic state were determined using an Apoptag Fluorescein In-situ Apoptosis Detection Kit (Chemicon International cod. S7110), while those in proliferative state were marked with the antibody Ki-67 (monoclonal mouse anti-human Ki-67, clone MIB1, Dako Cytomation cod. M7240). The total number of cells in the dermopapilla was analysed by marking their nuclei by means of DAPI (4′, 6-diamidino-2-phenylindol dihydrochloride). The percentage of cells in the proliferative or apoptotic stage compared to the total number of cells was determined again by image analysis.

[5] = test system: hair follicles; test: Histological analysis of hair follicles (anagen/catagen phase); assay type: cell-based, human; conditions: after 9 days of cultivation
Source text: The experiment according to Examples 1 and 2 was terminated after 9 days of cultivation. Subsequently, the hair follicles were subjected to a histological analysis by colouring with haematossilin and eosin in order to verify the morphological state of the dermopapilla.

## NCCC[C@H](N)C(=O)O [Ornithine]
[1]; Conc. 0.001% b.w.
  Growth of hair follicles - elongation ± standard error, relative to control (100): 105.1 ± 5.1%
[1]; Conc. 0.01% b.w.
  Growth of hair follicles - elongation ± standard error, relative to control (100): 102.1 ± 5.0%

## Ornithine Ketoglutarate [OKG]
[1]; 0.001 and 0.01% b.w., 6 days
  Hair follicle stimulation compared to Ornithine and alpha-Ketoglutarate taken alone (in words): superiority and synergistic effect
[1]; Conc. 0.001% b.w.
  Growth of hair follicles - elongation ± standard error, relative to control (100): 112.7 ± 3.1%
[1]; Conc. 0.01% b.w.
  Growth of hair follicles - elongation ± standard error, relative to control (100): 110.4 ± 4.0%
[2]; OKG 0.005% b.w. in cultivation medium, day 1 of cultivation
  Growth of hair follicles - elongation ± standard error: 0 mm
[2]; OKG 0.005% b.w. in cultivation medium, day 3 of cultivation
  Growth of hair follicles - elongation ± standard error: 0.84 ± 0.022 mm
[2]; OKG 0.005% b.w. in cultivation medium, day 5 of cultivation
  Growth of hair follicles - elongation ± standard error: 1.50 ± 0.078 mm
[2]; OKG 0.005% b.w. in cultivation medium, day 7 of cultivation
  Growth of hair follicles - elongation ± standard error: 1.98 ± 0.155 mm
[2]; OKG 0.005% b.w. in cultivation medium, day 9 of cultivation
  Growth of hair follicles - elongation ± standard error: 2.35 ± 0.253 mm
[2]; OKG 0.01% b.w. in cultivation medium, day 1 of cultivation
  Growth of hair follicles - elongation ± standard error: 0 mm
[2]; OKG 0.01% b.w. in cultivation medium, day 3 of cultivation
  Growth of hair follicles - elongation ± standard error: 0.88 ± 0.024 mm
[2]; OKG 0.01% b.w. in cultivation medium, day 5 of cultivation
  Growth of hair follicles - elongation ± standard error: 1.63 ± 0.067 mm
[2]; OKG 0.01% b.w. in cultivation medium, day 7 of cultivation
  Growth of hair follicles - elongation ± standard error: 2.25 ± 0.086 mm
[2]; OKG 0.01% b.w. in cultivation medium, day 9 of cultivation
  Growth of hair follicles - elongation ± standard error: 2.77 ± 0.163 mm
[2]; addition of OKG 0.005 to 0.01% b.w. versus control
  Effect on growth of the hair follicles (in words): significant increase in growth of the hair follicles
[3]
  Effect on proliferation of A 549 cells (in words): stimulate the proliferation of A 549 cells
[4]; OKG 0.1% b.w., control 0.48%
  Number of cells in Apoptotic stage ± standard error (of total cells): 0.17% ± 0.073
[4]; OKG 0.1% b.w., control 10.74%
  Number of cells in Proliferative stage ± standard error (of total cells): 10.51% ± 0.17
[4]
  Effect on number of apoptotic cells (in words): significantly reduces the number of apoptotic cells
[5]; OKG 0.1% b.w., control 44%
  Hair follicles in Catagen phase: 22%
[5]; OKG 0.1% b.w., control 56%
  Hair follicles in Anagen phase: 78%
[5]
  Effect on decline to the catagen phase (in words): significantly delayed the decline to the catagen phase

## O=C(O)CCC(=O)C(=O)O [alpha-Ketoglutarate]
[1]; Conc. 0.001% b.w.
  Growth of hair follicles - elongation ± standard error, relative to control (100): 103.1 ± 3.1%
[1]; Conc. 0.01% b.w.
  Growth of hair follicles - elongation ± standard error, relative to control (100): 103.8 ± 3.8%
